Assay results as given in patent publication USRE37781E1, “Substituted cyclic carbonyls and derivatives thereof useful as retroviral protease inhibitors” (DuPont Pharmaceuticals Company, priority 1991, dated 2002).
Read-outs that look alike come from different tables or passages of the source.

Assays:
[1] = system: HIV-1 (RF) in MT-2 cells; assay: microbe, parasite or virus in culture; format: cell-based
How it was run: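 HIV-1 laboratory strains (RF, MN, IIIB) grown in H9 cells in RPMI 1640 with 5% FCS; infections in MT-2 cells. Viral RNA quantified by hybridization with biotinylated gag/pol capture probes on streptavidin plates and alkaline phosphatase-conjugated reporter probes; BH10 gag-pol in vitro transcripts serve as RNA standards.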

[2] = target: single-chain tethered dimer of HIV protease (Human immunodeficiency virus 1, UniProt P04585); assay: biochemical; format: biochemical; parameters: fused on or other part: A second copy of the same protease unit is joined to the first by a short peptide tether, giving one polypeptide
[3] = Human immunodeficiency virus 1, MT2, 48 h, Table 2d, class symbols, read-out: IC90
[4] = read-out: HPLC K1, Table 2d, class symbols
[5] = Human immunodeficiency virus 1, MT2, 48 h, Table 2d, HIV RNA assay, read-out: IC90
[6] = read-out: HPLC K1, Table 2d, HIV protease inhibition, HPLC method

Structure (SMILES)	IC90 [1, 3]	melting point	Ki [2, 4]	other results
N=C(N)c1cccc(CN2C(=O)N(Cc3cccc(C(=N)N)c3)C(Cc3ccccc3)C(O)C(O)C2Cc2ccccc2)c1 (stereo not drawn) [11A]	> 100 µg/mL	224 to 226 °C	0.01 to 1 µM	
O=C(O)c1cccc(CN2C(=O)N(Cc3ccc(CO)cc3)C(Cc3ccccc3)C(O)C(O)C2Cc2ccccc2)c1 (stereo not drawn) [15WR]	< 10 µg/mL	130 to 132 °C	< 0.01 µM	
CN(C=O)c1cccc(CN2C(=O)N(Cc3cccc(N(C)C=O)c3)C(Cc3ccccc3)C(O)C(O)C2Cc2ccccc2)c1 (stereo not drawn) [15F]	< 10 µg/mL	82 °C	0.01 to 1 µM	
CCNC(=O)c1cccc(CN2C(=O)N(Cc3cccc(C(=O)NCC)c3)C(Cc3ccccc3)C(O)C(O)C2Cc2ccccc2)c1 (stereo not drawn) [11R]	< 10 µg/mL	135 to 138 °C	< 0.01 µM	
O=C1N(Cc2cccnc2)C(Cc2ccccc2)C(O)C(O)C(Cc2ccccc2)N1Cc1cccc(-c2cc[nH]n2)c1 (stereo not drawn) [Example 15BU]		133 to 136 °C		IC90 [1, 5]: < 10 µg/mL; Ki [2, 6]: < 0.01 µM
NC(=NO)c1ccc(CN2C(=O)N(Cc3ccc(CO)cc3)C(Cc3ccccc3)C(O)C(O)C2Cc2ccccc2)cc1 (stereo not drawn) [15AI]		215 °C		IC90 [1, 5]: < 10 µg/mL; Ki [2, 6]: 0.01 to 1 µM
CNC(=O)Oc1cccc(CN2C(=O)N(Cc3cccc(OC(=O)NC)c3)C(Cc3ccccc3)C(O)C(O)C2Cc2ccccc2)c1 (stereo not drawn) [Example 9M]		150 °C (dec.)	0.01 to 1 µM	IC90 ([1]; Human immunodeficiency virus 1, MT2, 48 h): < 10 µg/mL
CONC(=O)c1cccc(CN2C(=O)N(Cc3cccc(C(=O)NOC)c3)C(Cc3ccccc3)C(O)C(O)C2Cc2ccccc2)c1 (stereo not drawn) [10R]	< 10 µg/mL	150 to 158 °C	< 0.01 µM	
O=C1N(Cc2cccc(C=NO)c2)C(Cc2ccccc2)C(O)C(O)C(Cc2ccccc2)N1Cc1cccc(CNO)c1 (stereo not drawn) [Example 9A]	< 10 µg/mL	214 to 216 °C	0.01 to 1 µM	
COC(=O)Oc1cccc(CN2C(=O)N(Cc3cccc(OC(=O)OC)c3)C(Cc3ccccc3)C(O)C(O)C2Cc2ccccc2)c1 (stereo not drawn) [Example 9G]	< 10 µg/mL	146 to 147 °C	0.01 to 1 µM	
O=[N+]([O-])c1cccc(CN2C(Cc3ccccc3)C(O)C(O)C(Cc3ccccc3)N(Cc3cccc([N+](=O)[O-])c3)S2(=O)=O)c1 (stereo not drawn) [23L]		196 to 198 °C		IC90 ([1]; Human immunodeficiency virus 1, MT2, Table 2m, read-out: IC90): < 10 µg/mL; Ki ([2]; read-out: HPLC Ki, Table 2m): 0.01 to 1 µM
OC1C(O)C(Cc2ccccc2)N(Cc2ccccc2)C(=S)N(Cc2ccccc2)C1Cc1ccccc1 (stereo not drawn) [Example 27A]		92 to 94 °C		IC90 ([1]; Human immunodeficiency virus 1, MT2, Table 2q, read-out: IC90): < 10 µg/mL; Ki ([2]; read-out: HPLC Ki, Table 2q): < 0.01 µM
O=C1N(CC2CC2)C(Cc2ccc([N+](=O)[O-])cc2)C(O)C(O)C(Cc2ccccc2[N+](=O)[O-])N1CC1CC1 (stereo not drawn) [Example 20A]		209.8 °C		IC90 ([1]; Human immunodeficiency virus 1, MT2, Table 2i, read-out: IC90): < 10 µg/mL; Ki ([2]; read-out: HPLC Ki, Table 2i): < 0.01 µM
NC(=O)c1cccc(CN2C(=O)NC(Cc3ccccc3)C(O)C(O)C2Cc2ccccc2)c1 (stereo not drawn) [15WW]	< 10 µg/mL	114 to 116 °C	< 0.01 µM	
Nc1ccc(CN2C(=O)N(Cc3ccc(N)cc3)C(Cc3ccccc3)C(O)C(O)C2Cc2ccccc2)cc1 (stereo not drawn) [15CQ]		114 to 116 °C		IC90 [1, 5]: < 10 µg/mL; Ki [2, 6]: < 0.01 µM
O=C(O)c1cccc(CN2C(=O)N(Cc3ccccc3)C(Cc3ccccc3)C(O)C(O)C2Cc2ccccc2)c1 (stereo not drawn) [15WP]	< 10 µg/mL	122 to 124 °C	< 0.01 µM	
NC(=NO)c1cccc(CN2C(=O)N(Cc3ccc4ccccc4c3)C(Cc3ccccc3)C(O)C(O)C2Cc2ccccc2)c1 (stereo not drawn) [15AN]		192 to 193 °C		IC90 [1, 5]: < 10 µg/mL; Ki [2, 6]: < 0.01 µM
O=C(Nc1cccc(CN2C(=O)N(Cc3cccc(NC(=O)OCc4ccccc4)c3)C(Cc3ccccc3)C(O)C(O)C2Cc2ccccc2)c1)OCc1ccccc1 (stereo not drawn) [15E]	> 100 µg/mL	190.7 °C	0.01 to 1 µM	
N#Cc1cccc(CN2C(=O)N(Cc3cccc(C=O)c3)C(Cc3ccccc3)C(O)C(O)C2Cc2ccccc2)c1 (stereo not drawn) [10C]	< 10 µg/mL	189 to 191 °C	< 0.01 µM	
